Values joined by “and” are separate entries in the source; they are usually repeats but may differ in a detail not shown here. Equal entries are not always repeated. Toxic doses and inconclusive results are not listed.

This assay deals with L1210 leukemia ip in BDF1 mice, survival T/C. Description: NCI In Vivo Anticancer Drug Screen. Data for tumor model L1210 Leukemia (intraperitoneal) in B6D2F1 (BDF1) mice. To be noted: endpoint: mean survival time, higher = longer survival. Put shortly:
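Antitumor effect is assessed in tumor-bearing animals. Survival in the compound arm is compared with a vehicle-dosed control arm and expressed as their quotient.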

Setting [1] is: dose: 100.0 mg/kg/injection, schedule: Q01DX009 (ip), vehicle: Klucel (hydroxypropylcellulose) (HPC).
The mark [2] stands for this setting: dose: 100.0 mg/kg/injection, schedule: Q04DX003 (ip), vehicle: saline.
Setting [3] is: dose: 200.0 mg/kg/injection, schedule: Q01DX009 (ip), vehicle: Klucel (hydroxypropylcellulose) (HPC).
The mark [4] stands for this setting: dose: 400.0 mg/kg/injection, schedule: Q01DX009 (ip), vehicle: Klucel (hydroxypropylcellulose) (HPC).
Setting [5] is: dose: 100.0 mg/kg/injection, schedule: Q04DX003 (ip), vehicle: Klucel (hydroxypropylcellulose) (HPC).
[6] abbreviates: dose: 400.0 mg/kg/injection, schedule: Q04DX003 (ip), vehicle: Klucel (hydroxypropylcellulose) (HPC).
Setting [7] is: dose: 100.0 mg/kg/injection, schedule: Q01DX001 (ip), vehicle: saline.
The mark [8] stands for this setting: dose: 200.0 mg/kg/injection, schedule: Q01DX001 (ip), vehicle: saline.
Where [9] appears, read: dose: 400.0 mg/kg/injection, schedule: Q01DX001 (ip), vehicle: saline.
Where [10] appears, read: dose: 100.0 mg/kg/injection, schedule: Q04DX002 (ip), vehicle: Klucel (hydroxypropylcellulose) (HPC).
Setting [11] is: dose: 200.0 mg/kg/injection, schedule: Q04DX003 (ip), vehicle: Klucel (hydroxypropylcellulose) (HPC).

Take `CN(C)CCOc1ccc(Cl)cc1Cc1ccccc1`: the T/C runs as follows: (dose: 3.12 mg/kg/injection, schedule: Q01DX009 (ip), vehicle: saline) 95 % of control; (dose: 6.25 mg/kg/injection, schedule: Q01DX009 (ip), vehicle: saline) 95 % of control; (dose: 12.5 mg/kg/injection, schedule: Q01DX009 (ip), vehicle: saline) 118 % of control; (dose: 25.0 mg/kg/injection, schedule: Q01DX009 (ip), vehicle: saline) 105 % of control; (dose: 25.0 mg/kg/injection, schedule: Q04DX003 (ip), vehicle: saline) 100 % of control; (dose: 50.0 mg/kg/injection, schedule: Q01DX009 (ip), vehicle: saline) 112 % of control. Further, the T/C (dose: 50.0 mg/kg/injection, schedule: Q04DX003 (ip), vehicle: saline) was 94 % of control.

On to `CCC1([N+](=O)[O-])COP(=O)(NCc2cccnc2)OC1` (configuration not stated), for which the T/C runs as follows: (dose: 100.0 mg/kg/injection, schedule: Q01DX001 (ip), vehicle: carboxymethylcellulose (CMC)) 92 % of control; (dose: 200.0 mg/kg/injection, schedule: Q01DX001 (ip), vehicle: carboxymethylcellulose (CMC)) 101 % of control; (dose: 400.0 mg/kg/injection, schedule: Q01DX001 (ip), vehicle: carboxymethylcellulose (CMC)) 116 % of control.

For the compound `O=C1CCC(Cc2cccc3ccccc23)N1` (configuration not stated), the T/C is 97 % of control (dose: 100.0 mg/kg/injection, schedule: Q04DX002 (ip), vehicle: saline with Tween-80); 91 % of control (dose: 200.0 mg/kg/injection, schedule: Q04DX002 (ip), vehicle: saline with Tween-80); 94 % of control (dose: 400.0 mg/kg/injection, schedule: Q04DX002 (ip), vehicle: saline with Tween-80).

As to `O=S(=O)(O)C1(C(Cl)Cl)CCCCC1` (tested in a mixture with another compound), the T/C is, setting by setting: (dose: 9.0 mg/kg/injection, schedule: Q01DX001 (ip), vehicle: other) 100 % of control; (dose: 18.0 mg/kg/injection, schedule: Q01DX001 (ip), vehicle: other) 105 % of control; (dose: 37.0 mg/kg/injection, schedule: Q01DX001 (ip), vehicle: other) 105 % of control; (dose: 75.0 mg/kg/injection, schedule: Q01DX001 (ip), vehicle: other) 104 % of control; (dose: 150.0 mg/kg/injection, schedule: Q01DX001 (ip), vehicle: other) 111 % of control; (dose: 300.0 mg/kg/injection, schedule: Q01DX001 (ip), vehicle: other) 115 % of control.

With `CCCCCCCC(=O)NCCCC`, the T/C under setting [1] was 105 % of control; the T/C under setting [2] was 99 % of control; the T/C under setting [3] was 95 % of control; the T/C (dose: 200.0 mg/kg/injection, schedule: Q04DX003 (ip), vehicle: saline) is 101 % of control; the T/C under setting [4] is 109 % of control; the T/C (dose: 400.0 mg/kg/injection, schedule: Q04DX003 (ip), vehicle: saline) was 99 % of control.

Regarding `CNc1ncnc2c1ccn2C1OC(CO)C(O)C1O` (configuration not stated), the T/C (dose: 50.0 mg/kg/injection, schedule: Q01DX001 (ip), vehicle: carboxymethylcellulose (CMC)) was 110 % of control.

Consider `CCOc1ccc(NC(=O)Nc2cccc3ccccc23)cc1`, for which the T/C runs as follows: under setting [1], 98 % of control; under setting [5], 86 % of control; under setting [3], 94 % of control; under setting [4], 86 % of control; under setting [6], 92 % of control.

With `COc1cc2c(cc1OC)C(Cc1cc3c(cc1[N+](=O)[O-])OCO3)=NCC2`, the T/C runs as follows: under setting [7], 96 % of control; under setting [8], 96 % of control; under setting [9], 93 % of control.

Turning to `Clc1ccc(SCSc2nc3ccccc3s2)cc1`, the T/C was 105 % of control (dose: 25.0 mg/kg/injection, schedule: Q04DX002 (ip), vehicle: Klucel (hydroxypropylcellulose) (HPC)); 86 % of control (dose: 50.0 mg/kg/injection, schedule: Q04DX002 (ip), vehicle: Klucel (hydroxypropylcellulose) (HPC)); 93 % of control under setting [10].

Turning to `CCOC(=O)c1cc(OCC)nc(SC)n1`, the T/C (dose: 25.0 mg/kg/injection, schedule: Q01DX Z (ip), vehicle: methylcellulose (MC)) was 86 % of control and the T/C (dose: 50.0 mg/kg/injection, schedule: Q01DX Z (ip), vehicle: methylcellulose (MC)) was 100 % of control.

As for `COc1cc([N+](=O)[O-])cc2c1OC1(C=C2)N(C)c2ccccc2C1(C)C` (configuration not stated), the T/C was 111 % of control (dose: 25.0 mg/kg/injection, schedule: Q04DX002 (ip), vehicle: gum acacia); 97 % of control and 100 % of control (dose: 50.0 mg/kg/injection, schedule: Q04DX002 (ip), vehicle: gum acacia); 100 % of control (dose: 100.0 mg/kg/injection, schedule: Q04DX002 (ip), vehicle: gum acacia); 108 % of control (dose: 200.0 mg/kg/injection, schedule: Q04DX002 (ip), vehicle: gum acacia).

In the case of `CCCCn1cnc2c(=O)n(C)c(=O)n(C)c21`, the T/C under setting [7] is 96 % of control and the T/C under setting [8] is 94 % of control.

For `CNC(=N)c1ccc(NC(=N)c2ccc(NC(=N)c3ccc(NC(=O)Nc4ccc(C(=N)Nc5ccc(C(=N)Nc6ccc(C(=N)NC)cc6)cc5)cc4)cc3)cc2)cc1`, the T/C was 112 % of control (dose: 6.25 mg/kg/injection, schedule: Q01DX001 (ip), vehicle: water); 108 % of control (dose: 12.5 mg/kg/injection, schedule: Q01DX001 (ip), vehicle: water); 157 % of control (dose: 16.0 mg/kg/injection, schedule: Q01DX015 (ip), vehicle: water); 112 % of control (dose: 25.0 mg/kg/injection, schedule: Q01DX001 (ip), vehicle: water); 214 % of control (dose: 31.0 mg/kg/injection, schedule: Q01DX015 (ip), vehicle: water).

`Cc1ccc(S(=O)(=O)NCl)cc1`: the T/C under setting [2] is 99 % of control.

Turning to `COc1c(NC(=O)Nc2ccccc2C)cccc1[N+](=O)[O-]`, the T/C reads like this: (dose: 6.25 mg/kg/injection, schedule: Q01DX009 (ip), vehicle: saline with Tween-80) 100 % of control; (dose: 6.25 mg/kg/injection, schedule: Q04DX002 (ip), vehicle: saline with Tween-80) 96 % of control; (dose: 12.5 mg/kg/injection, schedule: Q01DX009 (ip), vehicle: saline with Tween-80) 92 % of control; (dose: 12.5 mg/kg/injection, schedule: Q04DX002 (ip), vehicle: saline with Tween-80) 93 % of control; (dose: 25.0 mg/kg/injection, schedule: Q01DX009 (ip), vehicle: saline with Tween-80) 88 % of control; (dose: 25.0 mg/kg/injection, schedule: Q04DX002 (ip), vehicle: saline with Tween-80) 100 % of control.

As to `Cc1cc(=O)n(-c2ccc(N)cc2)n1C`, the T/C reads like this: under setting [5], 100 % of control; under setting [11], 100 % of control; under setting [6], 101 % of control.

`Cc1cc(NC(=O)Nc2cc([N+](=O)[O-])ccc2Cl)no1`: the T/C is 89 % of control (dose: 100.0 mg/kg/injection, schedule: Q01DX001 (ip), vehicle: Klucel (hydroxypropylcellulose) (HPC)); 96 % of control and 98 % of control under setting [1]; 104 % of control and 91 % of control under setting [10]; 96 % of control under setting [5]; 106 % of control and 90 % of control under setting [3]; 95 % of control and 98 % of control (dose: 200.0 mg/kg/injection, schedule: Q04DX002 (ip), vehicle: Klucel (hydroxypropylcellulose) (HPC)). The T/C is, setting by setting: under setting [11], 97 % of control; under setting [4], 98 % of control; (dose: 400.0 mg/kg/injection, schedule: Q04DX002 (ip), vehicle: Klucel (hydroxypropylcellulose) (HPC)) 95 % of control and 106 % of control; under setting [6], 97 % of control.

`C[C@]12CCC(=O)C=C1CC[C@@H]1[C@@H]2CC[C@@]2(C)[C@H]1CC[C@]2(C)O`: the T/C is, setting by setting: (dose: 100.0 mg/kg/injection, schedule: Q04DX003 (sc), vehicle: steriod suspending solution) 95 % of control; (dose: 200.0 mg/kg/injection, schedule: Q04DX003 (sc), vehicle: steriod suspending solution) 102 % of control; (dose: 400.0 mg/kg/injection, schedule: Q04DX003 (sc), vehicle: steriod suspending solution) 97 % of control.

For `Cc1ccc2c(c1C)C(=O)C(=O)N2`, the T/C by setting is: (dose: 50.0 mg/kg/injection, schedule: Q01DX001 (ip), vehicle: saline) 110 % of control; under setting [7], 104 % of control; under setting [8], 110 % of control; under setting [9], 104 % of control.

The values above are taken from PubChem BioAssay AID248 (DTP/NCI, 2004).
